# Data: patent US7968526B2, “Antisense oligonucleotides directed to ribonucleotide reductase R2 and uses thereof in the treatment of cancer” (Lorus Therapeutics Inc., priority 2003, dated 2011)
# Assays:
# [1] = test system: PC-3 human prostatic cancer cells; assay: PC-3 prostatic tumour xenograft in SCID mice, combination with mitoxantrone (1.4); type: in vivo, human cells in mice; settings: PC-3, SCID mice; SEQ ID NO:1 10 mg/kg i.v. every other day 18 times; mitoxantrone 2 mg/kg i.v. once
# Experimental: After 52 days the mice were sacrificed and the tumours weighed. […] In both experiments, PC-3 human prostatic cancer cells (1×10^7 cells in 100 μl of PBS) were subcutaneously injected into the right flank of 6-7 weeks old male SCID mice. After the size of tumour reached an approximate volume of 50 mm^3, 14 days post tumour cell injection, SEQ ID NO: 1 was administered by bolus infusion into the tail vein every other day at 10 mg/kg 18 times (FIG. 4A) or 17 times (FIG. 4B), respectively. Control animals received saline alone for the same period. Antitumour effect of SEQ ID NO:1 was further compared to that of mitoxantrone (novantrone) alone or in combination. Mitoxantrone was administered intravenously once at the beginning of the treatments at a dose of 2 mg/kg (FIG. 4A) or once a week for four weeks at a reduced dose of 0.8 mg/kg (FIG. 4B). All treatments were stopped at day 50 (FIG. 4A) or 48 (FIG. 4B), respectively. A day after the last treatment, tumours were excised from the animals and their weights were measured. […] In both experiments, DU145 human prostatic cancer cells (1×10^7 cells in 100 μl of PBS) were subcutaneously injected into the right flank of 6-7 weeks old male SCID mice. After the size of tumour reached an approximate volume of 50 mm^3, 13 (FIG. 5A) or 11 (FIG. 5B) days post tumour cell injection, SEQ ID NO:1 was administered by bolus infusion into the tail vein every other day at 10 mg/kg 15 times (FIG. 5A) or 14 times (FIG. 5B), respectively. Control animals received saline alone for the same period. Antitumour effect of SEQ ID NO:1 was further compared to that of mitoxantrone (novantrone) alone or in combination. Mitoxantrone was administered intravenously once at the beginning of the treatments at a dose of 2 mg/kg (FIG. 5A) or once a week for four weeks at a reduced dose of 0.8 mg/kg (FIG. 5B). All treatments were stopped at day 42 (FIG. 5A) or 38 (FIG. 5B), respectively. A day after the last treatment, tumours were excised from the animals and their weights were measured.
# [2] = Tissue distribution in the rat (CE method); type: in vivo
# Experimental: The toxicokinetics and tissue distribution of SEQ ID NO:1 (and related oligonucleotide metabolites obtained from exonuclease-mediated chain shortening) were determined in rats and monkeys. In addition to investigating the pharmacokinetics and tissue distribution of SEQ ID NO:1, the purpose of the studies was to correlate adverse effects in the animal studies to the concentrations of SEQ ID NO:1 (and metabolites) in tissue and blood. A capillary electrophoresis (CE) method was used to measure the concentrations of SEQ ID NO:1 (and metabolites) in plasma and tissues.
# The concentrations of SEQ ID NO:1 (and related n+1, n−1 to n−15 oligonucleotide metabolites) in the following rat and monkey tissues were measured by a validated CE method (Southwest Bio-Labs, Inc.): kidney, liver, spleen, heart, lung, bone marrow (rat), lymph nodes (monkey) and brain tissues. The tissue samples were collected from the designated animals as described in the 21-day toxicity studies: rats, administered bolus intravenous injections of SEQ ID NO:1 every other day at 2, 10, or 50 mg/kg; and monkeys administered SEQ ID NO:1 by continuous intravenous infusion at 2, 10, or 50 mg/kg/day.
# [3] = 2 mg/kg bolus i.v. every other day, 4 hrs post first dose
# [4] = 2 mg/kg bolus i.v. every other day, 4 hrs post last dose
# [5] = 2 mg/kg bolus i.v. every other day, 48 hrs post first dose
# [6] = 10 mg/kg bolus i.v. every other day, 4 hrs post first dose
# [7] = 10 mg/kg bolus i.v. every other day, 4 hrs post last dose
substance,measurement,setting,value
"5′-GGCTAAATCGCTCCACCAAG-3′ (all phosphorothioate, sugars by position and methylation of C not given here) [SEQ ID NO: 1, fully phosphorothioated antisense oligonucleotide that hybridizes to the coding region of R2 mRNA]","Antitumour effect (tumour weight, FIG. 4A)",[1],significant delay of tumour growth compared to saline control
same,Rank order of tissue concentrations,[2],kidney>liver>bone marrow>spleen>heart>lung
same,"Mean Concentration SEQ ID NO: 1, Bone Marrow",[2]; [3],BDL (below detectable limits (1 μg/g rat; 0.2 μg/g monkey))
same,"Mean Concentration SEQ ID NO: 1, Brain",[2]; [3],BDL (below detectable limits (1 μg/g rat; 0.2 μg/g monkey))
same,"Mean Concentration SEQ ID NO: 1, Heart",[2]; [3],0.8 µg/g
same,"Mean Concentration SEQ ID NO: 1, Kidney",[2]; [3],6.7 µg/g
same,"Mean Concentration SEQ ID NO: 1, Liver",[2]; [3],6.9 µg/g
same,"Mean Concentration SEQ ID NO: 1, Lung",[2]; [3],BDL (below detectable limits (1 μg/g rat; 0.2 μg/g monkey))
same,"Mean Concentration SEQ ID NO: 1, Spleen",[2]; [3],1.0 µg/g
same,"Mean Concentration total metabolites (n + 1 through n − 13), Bone Marrow",[2]; [3],BDL (below detectable limits (1 μg/g rat; 0.2 μg/g monkey))
same,"Mean Concentration total metabolites (n + 1 through n − 13), Brain",[2]; [3],BDL (below detectable limits (1 μg/g rat; 0.2 μg/g monkey))
same,"Mean Concentration total metabolites (n + 1 through n − 13), Heart",[2]; [3],0.3 µg/g
same,"Mean Concentration total metabolites (n + 1 through n − 13), Kidney",[2]; [3],20.8 µg/g
same,"Mean Concentration total metabolites (n + 1 through n − 13), Liver",[2]; [3],16.9 µg/g
same,"Mean Concentration total metabolites (n + 1 through n − 13), Lung",[2]; [3],BDL (below detectable limits (1 μg/g rat; 0.2 μg/g monkey))
same,"Mean Concentration total metabolites (n + 1 through n − 13), Spleen",[2]; [3],1.2 µg/g
same,"Mean Concentration SEQ ID NO: 1, Bone Marrow",[2]; [4],1.8 µg/g
same,"Mean Concentration SEQ ID NO: 1, Brain",[2]; [4],BDL (below detectable limits (1 μg/g rat; 0.2 μg/g monkey))
same,"Mean Concentration SEQ ID NO: 1, Heart",[2]; [4],BDL (below detectable limits (1 μg/g rat; 0.2 μg/g monkey))
same,"Mean Concentration SEQ ID NO: 1, Kidney",[2]; [4],28.0 µg/g
same,"Mean Concentration SEQ ID NO: 1, Liver",[2]; [4],13.8 µg/g
same,"Mean Concentration SEQ ID NO: 1, Lung",[2]; [4],0.9 µg/g
same,"Mean Concentration SEQ ID NO: 1, Spleen",[2]; [4],1.8 µg/g
same,"Mean Concentration total metabolites (n + 1 through n − 13), Bone Marrow",[2]; [4],3.8 µg/g
same,"Mean Concentration total metabolites (n + 1 through n − 13), Brain",[2]; [4],BDL (below detectable limits (1 μg/g rat; 0.2 μg/g monkey))
same,"Mean Concentration total metabolites (n + 1 through n − 13), Heart",[2]; [4],BDL (below detectable limits (1 μg/g rat; 0.2 μg/g monkey))
same,"Mean Concentration total metabolites (n + 1 through n − 13), Kidney",[2]; [4],122.8 µg/g
same,"Mean Concentration total metabolites (n + 1 through n − 13), Liver",[2]; [4],42.1 µg/g
same,"Mean Concentration total metabolites (n + 1 through n − 13), Lung",[2]; [4],0.2 µg/g
same,"Mean Concentration total metabolites (n + 1 through n − 13), Spleen",[2]; [4],6.5 µg/g
same,"Mean Concentration SEQ ID NO: 1, Bone Marrow",[2]; [5],BDL (below detectable limits (1 μg/g rat; 0.2 μg/g monkey))
same,"Mean Concentration SEQ ID NO: 1, Brain",[2]; [5],BDL (below detectable limits (1 μg/g rat; 0.2 μg/g monkey))
same,"Mean Concentration SEQ ID NO: 1, Heart",[2]; [5],BDL (below detectable limits (1 μg/g rat; 0.2 μg/g monkey))
same,"Mean Concentration SEQ ID NO: 1, Kidney",[2]; [5],1.0 µg/g
same,"Mean Concentration SEQ ID NO: 1, Liver",[2]; [5],BDL (below detectable limits (1 μg/g rat; 0.2 μg/g monkey))
same,"Mean Concentration SEQ ID NO: 1, Lung",[2]; [5],BDL (below detectable limits (1 μg/g rat; 0.2 μg/g monkey))
same,"Mean Concentration SEQ ID NO: 1, Spleen",[2]; [5],BDL (below detectable limits (1 μg/g rat; 0.2 μg/g monkey))
same,"Mean Concentration total metabolites (n + 1 through n − 13), Bone Marrow",[2]; [5],BDL (below detectable limits (1 μg/g rat; 0.2 μg/g monkey))
same,"Mean Concentration total metabolites (n + 1 through n − 13), Brain",[2]; [5],BDL (below detectable limits (1 μg/g rat; 0.2 μg/g monkey))
same,"Mean Concentration total metabolites (n + 1 through n − 13), Heart",[2]; [5],BDL (below detectable limits (1 μg/g rat; 0.2 μg/g monkey))
same,"Mean Concentration total metabolites (n + 1 through n − 13), Kidney",[2]; [5],3.6 µg/g
same,"Mean Concentration total metabolites (n + 1 through n − 13), Liver",[2]; [5],BDL (below detectable limits (1 μg/g rat; 0.2 μg/g monkey))
same,"Mean Concentration total metabolites (n + 1 through n − 13), Lung",[2]; [5],BDL (below detectable limits (1 μg/g rat; 0.2 μg/g monkey))
same,"Mean Concentration total metabolites (n + 1 through n − 13), Spleen",[2]; [5],BDL (below detectable limits (1 μg/g rat; 0.2 μg/g monkey))
same,"Mean Concentration SEQ ID NO: 1, Bone Marrow",[2]; [6],2.7 µg/g
same,"Mean Concentration SEQ ID NO: 1, Brain",[2]; [6],BDL (below detectable limits (1 μg/g rat; 0.2 μg/g monkey))
same,"Mean Concentration SEQ ID NO: 1, Heart",[2]; [6],1.5 µg/g
same,"Mean Concentration SEQ ID NO: 1, Kidney",[2]; [6],31.1 µg/g
same,"Mean Concentration SEQ ID NO: 1, Liver",[2]; [6],19.7 µg/g
same,"Mean Concentration SEQ ID NO: 1, Lung",[2]; [6],1.6 µg/g
same,"Mean Concentration SEQ ID NO: 1, Spleen",[2]; [6],2.6 µg/g
same,"Mean Concentration total metabolites (n + 1 through n − 13), Bone Marrow",[2]; [6],3.5 µg/g
same,"Mean Concentration total metabolites (n + 1 through n − 13), Brain",[2]; [6],BDL (below detectable limits (1 μg/g rat; 0.2 μg/g monkey))
same,"Mean Concentration total metabolites (n + 1 through n − 13), Heart",[2]; [6],4.2 µg/g
same,"Mean Concentration total metabolites (n + 1 through n − 13), Kidney",[2]; [6],88.1 µg/g
same,"Mean Concentration total metabolites (n + 1 through n − 13), Liver",[2]; [6],47.9 µg/g
same,"Mean Concentration total metabolites (n + 1 through n − 13), Lung",[2]; [6],2.3 µg/g
same,"Mean Concentration total metabolites (n + 1 through n − 13), Spleen",[2]; [6],7.8 µg/g
same,"Mean Concentration SEQ ID NO: 1, Bone Marrow",[2]; [7],3.6 µg/g
same,"Mean Concentration SEQ ID NO: 1, Brain",[2]; [7],BDL (below detectable limits (1 μg/g rat; 0.2 μg/g monkey))
same,"Mean Concentration SEQ ID NO: 1, Heart",[2]; [7],BDL (below detectable limits (1 μg/g rat; 0.2 μg/g monkey))
same,"Mean Concentration SEQ ID NO: 1, Kidney",[2]; [7],129.5 µg/g
same,"Mean Concentration SEQ ID NO: 1, Liver",[2]; [7],38.1 µg/g
same,"Mean Concentration SEQ ID NO: 1, Lung",[2]; [7],2.1 µg/g
